In patent publication EP3650451A1, “COMPOUNDS AND THEIR USES AS FLUORESCENT PROBES” (Consejo Superior de Investigaciones Cientificas, priority 2017, dated 2019):

Assays:
Assay type in all cases: cell-based, human
[1] = test system: HeLa; assay: Kinetics of cell labeling by flow cytometry; conditions: 50 nM, staining times 5, 15 and 30 min
Procedure: (§1) The cell assays were carried out on two human cell lines: SCC38 and HeLa. The SCC38 line is derived from human laryngeal epidermoid carcinoma patients, while HeLa, the first human cell line established in culture, is derived from cervical cancer. The culture medium used for both cell lines was DMEM (Dulbecco's Modified Eagle's Medium) supplemented with 10% of fetal bovine serum (FBS), 100 U/mL of penicillin, 200 µg/mL of streptomycin, 100 µmol/L of non-essential amino acids and 2 mmol/L of glutamine. The cultures were incubated at 37 °C and 5% of CO2.
(§2) The kinetics of cell labeling with 4 was studied by flow cytometry with the SCC38 and HeLa cell lines, using MitoTracker® Red as a control marker, both at a concentration of 50 nM. The staining times studied were 5, 15, 30 and 45 minutes. After staining, the medium was removed, washed with PBS, trypsinized and the pellet was resuspended in 500 µL of PBS and introduced in the cytometer after filtration. A Beckman Coulter Cytomics FC500 Flow Cytometry Analyzer was used (Scientific-Technical Services, Universidad de Oviedo). Part of the resuspended cells were also plated and observed under the microscope.

[2] = test system: SCC38; assay: Kinetics of cell labeling by flow cytometry
Procedure: as §1, §2

[3] = test system: SCC38 cells; assay: Labeling in the presence of FCCP (depolarized mitochondrial membrane), flow cytometry
Procedure: • Fig. 1. In vivo labeling of SCC38 cells with compound 4 at different concentrations (50, 100 and 500 nM). Scale bar: 10 µm • Fig. 2. Flow cytometry studies in SCC38 and HeLa cell lines labeled with compound 4 and Mito Tracker® Red. Histograms wherein fluorescence intensity vs number of events is represented for each of the staining times (5, 15 and 30 min) and control (Ctrl), for the SCC38 and HeLa cells and for each of the two markers. • Fig. 3. Absorption (A) and fluorescence (B) spectra, normalized to molar absorption and fluorescence quantum yield of probe 4 in different solvents; chloroform (green), acetone (black), acetonitrile (red), ethanol (blue) and water (gray). • Fig. 4. […] (A) Flow cytometry analysis of SCC38 cells incubated in the presence (+FCCP) or absence (-FCCP) of FCCP 60 µM for 3 h before staining with 20 nM of 4 or 0.5 nm of MitoTracker. The data represent the mean fluorescence intensity (MFI) of the stained cells. (B) Microscopy analysis of SCC38 cells pretreated or not with FCCP before co-staining with 20 nM of 4 and 0.5 nm of MitoTracker. The graphs show the fluorescence profiles of the regions of interest indicated with white lines in the right-hand panels. Scale bars: 10 µm). • Fig. 5. […] The data represent the mean fluorescence intensity (MFI) of the stained cells (upper panels) and representative images of the cytometry profiles (lower panels). • Fig. 7. […] (B) The data represent the mean fluorescence intensity (MFI) of the labeled cells.
The labeling was analyzed by flow cytometry in the presence of carbonyl cyanide-p-(trifluoromethoxy)phenylhydrazone (FCCP), a protonophore used to reduce the mitochondrial membrane potential (ΔΨm) through depolarization of the mitochondrial membrane. […] Indeed, the suppression of dye-mitochondria electrostatic attraction as a passive labeling mechanism reduces the concentration of the dye in the cell organelle and, thus, the probability and extent of the fluorescence deactivation processes, with the ensuing increase in their efficiency. […]

[4] = test system: SCC38 cells; assay: Inhibition of mitochondrial staining by (R)-palmitoylcarnitine (CACT substrate), flow cytometry; conditions: co-incubation, probe 50 nm, (R)-palmitoylcarnitine 100, 250 and 500 nM
Procedure: The SCC38 cells were co-incubated with the indicated concentrations of (R)-palmitoylcarnitine and 50 nM of 4 (A) or 50 nM of MitoTracker (B) before analyzing by flow cytometry. The data represent the mean fluorescence intensity (MFI) of the stained cells (upper panels) and representative images of the cytometry profiles (lower panels). • Fig. 7.
To test if CACT was in fact involved in the channeling of 4 to the mitochondrial matrix, we firstly studied the effect of (R)-(+)-palmitoylcarnitine, a natural CACT substrate, in cell labeling by 4.

## CC1=CC(C)=[N+]2C1=C(c1c(C)cc(C)cc1C)c1c(C)cc(C)n1[B-]21OC(=O)C[C@H](C[N+](C)(C)C)O1 (stereo partly drawn) [Compound 4]
[1]
  change of staining intensity with incubation time: clearly increased in intensity with incubation time
[2]; SCC38, 50 nM, staining times 5, 15 and 30 min
  change of staining intensity with incubation time: clearly increased in intensity with incubation time
[2]; new cytometry experiment, 45 min versus 30 min, cell line not stated
  labeling intensity at longer staining time: even more intense than with a time of 30 minutes
[3]; 60 µM FCCP for 3 h at 37 °C
  labeling of depolarized mitochondria: capable of labeling depolarized mitochondria
[3]; 60 µM FCCP for 3 h at 37 °C before staining, 20 nM of 4 or 0.5 nM of MitoTracker
  mitochondrial fluorescence of cells treated with FCCP: increase in fluorescence
[4]
  effect of (R)-palmitoylcarnitine on fluorescence intensity: concentration-dependent reduction of fluorescence intensity
